Here are results for two compounds from US20080261959A1, “Novel crystalline forms of (S)-N-(1-Carboxy-2-methyl-prop-1-y)-N-pentanoyl-N[2'-(1H-tetrazol-5-yl)bi-phenyl-4-ylmethyl]-amine” (priority 2005, published 2008).

The data set is described as follows: Comparative bulk density determination. The format is physicochemical. Conditions: for Bulk density: powder sample.

Consider `CCCCC(=O)N(Cc1ccc(-c2ccccc2-c2nnn[nH]2)cc1)[C@H](C(=O)O)C(C)C` [Form D, (S)-N-(1-Carboxy-2-methyl-prop-1-yl)-N-pentanoyl-N-[2′-(1H-tetrazol-5-yl)bi-phenyl-4-ylmethyl]-amine], for which, under “listed as ‘Form D’ Vlasartan”, the “Tapped density (1250 taps)” value amounted to 0.6139 gm/ml and the Bulk density came to 0.4561 gm/ml.

For `CCCCC(=O)N(Cc1ccc(-c2ccccc2-c2nnn[nH]2)cc1)[C@H](C(=O)O)C(C)C` [Amorphous valsartan, (S)-N-(1-Carboxy-2-methyl-prop-1-yl)-N-pentanoyl-N-[2′-(1H-tetrazol-5-yl)bi-phenyl-4-ylmethyl]-amine], the “Tapped density (1250 taps)” value came to 0.504 gm/ml and the Bulk density is given as 0.37 gm/ml.
